Measurements reported in patent US5078135A, “Apparatus for in vivo analysis of biological compounds in blood or tissue by microdialysis and mass spectrometry” (Board of Regents, The University of Texas System, priority 1989, dated 1992).

Legend:
[1] = in vivo pharmacokinetic analysis of free drug by microdialysis / CF-FAB mass spectrometry (jugular vein probe, rat); parameters: species or system Sprague Dawley male rat; conditions: 330 gram rat, 15 milligrams sodium penicillin G in 0.3 milliliters saline, injected
Text: Referring to FIG. 1, the present invention applied to detect drug and metabolite levels in a rat is disclosed. It should be emphasized that the present apparatus and method can be applied to other animals, including humans. Microdialysis probe 11 is inserted inside a 22-gauge needle cannula (not shown) surgically placed in the jugular vein of a 330 gram Sprague Dawley male rat 12. A microliter syringe pump 13 is connected to microdialysis probe 11 by tube 14 and is used to controllably provide perfusate to microdialysis probe 11 through tube 14. Syringe pump 13 can be a Model 2274 pump available from the Harvard Apparatus Co., of Milford, Mass. In the preferred embodiment, the perfusate is 95% water and 5% glycerol provided at a rate of 4.8+/-0.2 microliters per minute.
The dialysate output from microdialysis probe 11 is connected through tube 16 to injection switch valve 17 which can be, for example, a Rheodyne Model 7410 injection switch valve. During collection, injection switch valve 17 is positioned so that dialysate passing through tube 16 passes through 20 microliter collection loop 18. […]
A 330 gram rat was injected with a dose of 15 milligrams of sodium penicillin G dissolved in 0.3 milliliters of physiological saline solution. Negative ions were recorded in the mass spectrometric analysis of the dialysate in order to obtain maximum sensitivity. […]

[2] = intramuscular administration; broken curve 43 in FIG. 4; cited from earlier work

In the case of CC1(C)S[C@@H]2[C@H](NC(=O)Cc3ccccc3)C(=O)N2[C@H]1C(=O)O [sodium penicillin G], the “peak concentration of free drug (non-protein bound)” value [1] is listed as “approximately 24 micrograms per milliliter”, the “time of peak concentration of free drug” value [1] is listed as “about 30 minutes” and the “time to peak, published data” value [2] is listed as 26 to 30 min.
